Assay results reported in PMC5404542, “In Vitro and In Vivo Antifungal Profile of a Novel and Long-Acting Inhaled Azole, PC945, on Aspergillus fumigatus Infection” (Antimicrobial Agents and Chemotherapy, 2017).
≈ marks a conversion by molar mass, not a printed value. Read-outs that look alike come from different tables or passages of the source. Marks after values point to notes of the source that are not given here.

Legend:
A. fumigatus = A. fumigatus sterol analysis by GC-MS; assay type: cell-based, Aspergillus fumigatus; details: 2 h
Method: A working suspension of A. fumigatus spores was prepared in filter-sterilized MOPS-RPMI 1640 (RPMI 1640 medium containing 2 mM L-glutamine, 2% glucose, and 0.165 M MOPS, buffered to pH 7 with NaOH) to a final concentration of 8 × 10^6 spores ml^-1. […] Samples for baseline determinations were collected by scraping, pelleted by centrifugation at 2,000 rpm for 5 min, and stored at -80°C. Test compounds or DMSO (50 μl) was added to the remaining dishes, which were subsequently gently rocked by hand to disperse the compounds. […] Samples were collected and processed as described above. […] These samples were prepared in the laboratory at Pulmocide Ltd. and sent to the laboratory at the Centre for Cytochrome P450 Biodiversity, Institute of Life Science, […] University Medical School, for experimentation. Nonsaponifiable lipids were extracted as previously reported ([29]) and were derivatized with 0.1 ml N,O-bis(trimethylsilyl)trifluoroacetamide:trimethylchlorosilane (99:1) and 0.3 ml anhydrous pyridine (2 h at 80°C) prior to analysis by gas chromatography-mass spectrometry ([38]). Sterol composition was calculated using peak areas from the gas chromatograms, and the mass fragmentation patterns compared to known standards were used to confirm sterol identity. The sterol contents of A. fumigatus (basal) and treated A. fumigatus (treated with either DMSO, posaconazole, or PC945) were determined.

AfCYP51A = AfCYP51A (Aspergillus fumigatus, UniProt Q4WNT5); experiment: CYP51 reconstitution assay (sterol 14α-demethylase activity); assay type: biochemical; parameters: made in house; host or cells: Escherichia coli (membrane fraction)
Chain of AfCYP51A (Q4WNT5 whole entry): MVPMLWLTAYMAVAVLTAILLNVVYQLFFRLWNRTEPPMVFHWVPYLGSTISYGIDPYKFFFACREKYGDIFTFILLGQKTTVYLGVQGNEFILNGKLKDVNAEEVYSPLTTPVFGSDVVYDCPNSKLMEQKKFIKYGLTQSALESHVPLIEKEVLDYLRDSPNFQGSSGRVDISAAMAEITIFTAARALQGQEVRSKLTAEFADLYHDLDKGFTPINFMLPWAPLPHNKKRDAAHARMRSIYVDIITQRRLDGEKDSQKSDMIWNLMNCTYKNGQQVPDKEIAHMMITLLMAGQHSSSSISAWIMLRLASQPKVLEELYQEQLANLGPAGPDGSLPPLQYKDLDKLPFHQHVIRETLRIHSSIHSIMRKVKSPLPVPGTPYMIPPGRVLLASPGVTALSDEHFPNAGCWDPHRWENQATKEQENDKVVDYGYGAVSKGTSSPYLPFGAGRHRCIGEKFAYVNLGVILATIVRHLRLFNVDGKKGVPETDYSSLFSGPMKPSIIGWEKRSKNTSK
Method: (§1) A CYP51 reconstitution assay system was used to determine 50% inhibitory concentrations (IC50s) ([37]). Test agent was added to a mixture of 0.5 μM CYP51, 1 μM A. fumigatus cytochrome P450 reductase isoenzyme 1 (AfCPR1), 50 μM eburicol, 4% (wt/vol) 2-hydroxypropyl-β-cyclodextrin, 0.4 mg ml^−1 isocitrate dehydrogenase, 25 mM trisodium isocitrate, 50 mM NaCl, 5 mM MgCl2, and 40 mM 3-(N-morpholino) propanesulfonic acid (MOPS) (pH ∼7.2). The mixtures were then incubated at 37°C for 10 min prior to initiation with 4 mM β-NADPHNa4 followed by shaking for 20 min at 37°C. Sterol metabolites were recovered by extraction with ethyl acetate followed by derivatization with 0.1 ml N,O-bis(trimethylsilyl)trifluoroacetamide:trimethylchlorosilane (99:1) and 0.3 ml anhydrous pyridine prior to analysis by gas chromatography-mass spectrometry.

[1] = test system: Penicillium chrysogenum (ATCC 9480); experiment: MIC, CLSI; assay type: cell-based; details: ATCC9480, 1 strain
[2] = test system: Lichtheimia corymbifera (ATCC 7909); experiment: MIC, CLSI; assay type: cell-based; details: ATCC7909, 1 strain
[3] = test system: 96 clinically isolated A. fumigatus strains; experiment: MIC against 96 clinically isolated strains (EUCAST, visual)
Method: Conidia were added across the plate to a final concentration of 1 × 10^5 ml^−1. […] Determination of antifungal activity against 50 A. fumigatus clinical isolates from St. Louis Hospital (Paris, France) was performed with 96-well plates, using the modified EUCAST method in the presence of 0.5% BSA as described above. Antifungal susceptibility testing of 46 A. fumigatus isolates (obtained from the NW England Mycology Reference Centre) was performed by Evotec UK Ltd. (Manchester, United Kingdom) according to EUCAST guidelines.

[4] = test system: Aspergillus niger (ATCC 1015); experiment: MIC, EUCAST; assay type: cell-based; details: ATCC1015, 1 strain, EUCAST, read-out: MIC
[5] = test system: Candida glabrata (ATCC 36583, R363); experiment: MIC, CLSI; assay type: cell-based; details: Nakaseomyces glabratus, ATCC36583; 2 strains, CLSI, mean isolate MIC; read-out: MIC (the MIC given is the MIC50)
AfCYP51B = molecular target: T1, AfCYP51B (Aspergillus fumigatus, UniProt E9QY26); experiment: CYP51 reconstitution assay (sterol 14α-demethylase activity); assay type: biochemical; details: for IC50: 0.5 μM AfCYP51B from membrane fraction of E. coli expression clones; for Ki: suggested from tight-binding inhibition, read-out: Ki.app, CYP51B
T1 construct: made in house; host or cells: Escherichia coli (membrane fraction)
T1 sequence (E9QY26 1-524): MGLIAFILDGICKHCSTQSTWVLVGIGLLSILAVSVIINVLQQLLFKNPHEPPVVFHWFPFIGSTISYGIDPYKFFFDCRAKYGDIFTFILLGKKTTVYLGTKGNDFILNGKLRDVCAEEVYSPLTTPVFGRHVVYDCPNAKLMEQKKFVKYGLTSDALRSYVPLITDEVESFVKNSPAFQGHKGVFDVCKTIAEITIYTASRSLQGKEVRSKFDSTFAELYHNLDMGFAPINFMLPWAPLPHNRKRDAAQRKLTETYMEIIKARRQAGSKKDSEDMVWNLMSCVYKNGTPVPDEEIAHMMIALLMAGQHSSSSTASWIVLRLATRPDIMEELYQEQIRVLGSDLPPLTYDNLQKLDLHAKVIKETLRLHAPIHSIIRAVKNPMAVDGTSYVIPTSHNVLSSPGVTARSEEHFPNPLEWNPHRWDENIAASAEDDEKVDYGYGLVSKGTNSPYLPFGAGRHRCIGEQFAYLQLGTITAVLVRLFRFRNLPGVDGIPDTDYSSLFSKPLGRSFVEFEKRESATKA
Method: as §1

[6] = test system: Cryptococcus gattii (clinical isolate); experiment: MIC, EUCAST; assay type: cell-based; details: 1 strain
[7] = test system: Cryptococcus neoformans (ATCC 24067); experiment: MIC, CLSI; assay type: cell-based; details: for MIC: Cryptococcus neoformans, ATCC24067, 1 strain, CLSI, read-out: MIC
[8] = test system: Aspergillus carbonarius (ATCC 8740); experiment: MIC, CLSI; assay type: cell-based; details: ATCC8740, 1 strain, CLSI, read-out: MIC
[9] = test system: Aspergillus flavus (AFL8, NRRC3357); experiment: MIC, EUCAST; assay type: cell-based; details: 2 strains, EUCAST, mean isolate MIC, read-out: MIC
[10] = 96 clinical isolates, determined visually
[11] = Aspergillus fumigatus, read-out: MIC, Geometric mean
[12] = Aspergillus fumigatus, read-out: MIC, Mode

Cc1cc(N2CCN(c3ccc(C(=O)Nc4ccc(F)cc4)cc3)CC2)ccc1OC[C@@H]1CO[C@@](Cn2cncn2)(c2ccc(F)cc2F)C1 [PC945, 4-[4-(4-{[(3R,5R)-5-(2,4-difluorophenyl)-5-(1H-1,2,4-triazol-1-ylmethyl)oxolan-3-yl]methoxy}-3-methylphenyl)piperazin-1-yl]-N-(4-fluorophenyl)benzamide]
Sterol content in cells, Eburicol (A. fumigatus; 0.0001 μg/ml): 0%
Sterol content in cells, Ergost-5,7-dienol (A. fumigatus; 0.0001 μg/ml): 4.1%
Sterol content in cells, Ergosterol (A. fumigatus; 0.0001 μg/ml): 95.9%
Sterol content in cells, Lanosterol (A. fumigatus; 0.0001 μg/ml): 0%
Sterol content in cells, Eburicol (A. fumigatus; 0.001 μg/ml): 2.7%
Sterol content in cells, Ergost-5,7-dienol (A. fumigatus; 0.001 μg/ml): 2.5%
Sterol content in cells, Ergosterol (A. fumigatus; 0.001 μg/ml): 94.7%
Sterol content in cells, Lanosterol (A. fumigatus; 0.001 μg/ml): 0%
Sterol content in cells, Eburicol (A. fumigatus; 0.01 μg/ml): 6.5%
Sterol content in cells, Ergost-5,7-dienol (A. fumigatus; 0.01 μg/ml): 3.3%
Sterol content in cells, Ergosterol (A. fumigatus; 0.01 μg/ml): 86.7%
Sterol content in cells, Lanosterol (A. fumigatus; 0.01 μg/ml): 3.6%
Sterol content in cells, Eburicol (A. fumigatus; 0.1 μg/ml): 13.2%
Sterol content in cells, Ergost-5,7-dienol (A. fumigatus; 0.1 μg/ml): 0%
Sterol content in cells, Ergosterol (A. fumigatus; 0.1 μg/ml): 80.6%
Sterol content in cells, Lanosterol (A. fumigatus; 0.1 μg/ml): 6.2%
Sterol content in cells, Eburicol (A. fumigatus; 1 μg/ml): 19.3%
Sterol content in cells, Ergost-5,7-dienol (A. fumigatus; 1 μg/ml): 0%
Sterol content in cells, Ergosterol (A. fumigatus; 1 μg/ml): 71.3%
Sterol content in cells, Lanosterol (A. fumigatus; 1 μg/ml): 9.4%
IC50 (AfCYP51A): 230 nM
Ki (AfCYP51A): < 1 nM
MIC [1]: > 8 µg/mL
MIC [2]: > 8 µg/mL
concentration up to which growth was not completely inhibited ([3]; 5 of the 13 posaconazole-resistant isolates, NW Mycology Centre): > 8 µg/mL
fold more potent than voriconazole, based on the geometric mean ([3]; 96 clinical isolates): 2.5 fold
MIC90 [3, 10]: 1 µg/mL (≈ 1.46 µM)
MIC, Geometric mean [3, 10]: 0.17* μg/ml
MIC50 ([3]; Aspergillus fumigatus): 0.125 µg/mL (≈ 0.183 µM)
MIC90 ([3]; Aspergillus fumigatus): 1 µg/mL (≈ 1.46 µM)
MIC [3, 11]: 0.17 µg/mL (≈ 0.249 µM)
MIC [3, 12]: 0.125 µg/mL (≈ 0.183 µM)
MIC [4]: > 8 µg/mL
MIC50 [5]: 0.5 µg/mL (≈ 0.732 µM)
IC50 (AfCYP51B): 220 nM
Ki (AfCYP51B): < 1 nM
MIC [6]: 0.25 µg/mL (≈ 0.366 µM)
fold more potent than both voriconazole and posaconazole ([7]; C. neoformans): 2 fold
MIC [7]: 0.008 µg/mL (≈ 0.0117 µM)
MIC [8]: 4 µg/mL (≈ 5.86 µM)
MIC [9]: 6 µg/mL (≈ 8.79 µM)

CC[C@@H]([C@H](C)O)n1ncn(-c2ccc(N3CCN(c4ccc(OC[C@@H]5CO[C@@](Cn6cncn6)(c6ccc(F)cc6F)C5)cc4)CC3)cc2)c1=O [Posaconazole, posaconazole]
Sterol content in cells, Eburicol (A. fumigatus; 0.0001 μg/ml): 2.2%
Sterol content in cells, Ergost-5,7-dienol (A. fumigatus; 0.0001 μg/ml): 3.3%
Sterol content in cells, Ergosterol (A. fumigatus; 0.0001 μg/ml): 94.5%
Sterol content in cells, Lanosterol (A. fumigatus; 0.0001 μg/ml): 0%
Sterol content in cells, Eburicol (A. fumigatus; 0.001 μg/ml): 5.9%
Sterol content in cells, Ergost-5,7-dienol (A. fumigatus; 0.001 μg/ml): 3.9%
Sterol content in cells, Ergosterol (A. fumigatus; 0.001 μg/ml): 87.2%
Sterol content in cells, Lanosterol (A. fumigatus; 0.001 μg/ml): 3.0%
Sterol content in cells, Eburicol (A. fumigatus; 0.01 μg/ml): 18.3%
Sterol content in cells, Ergost-5,7-dienol (A. fumigatus; 0.01 μg/ml): 0%
Sterol content in cells, Ergosterol (A. fumigatus; 0.01 μg/ml): 74.7%
Sterol content in cells, Lanosterol (A. fumigatus; 0.01 μg/ml): 7.0%
Sterol content in cells, Eburicol (A. fumigatus; 0.1 μg/ml): 23.4%
Sterol content in cells, Ergost-5,7-dienol (A. fumigatus; 0.1 μg/ml): 0%
Sterol content in cells, Ergosterol (A. fumigatus; 0.1 μg/ml): 67.8%
Sterol content in cells, Lanosterol (A. fumigatus; 0.1 μg/ml): 8.8%
Sterol content in cells, Eburicol (A. fumigatus; 1 μg/ml): 23.8%
Sterol content in cells, Ergost-5,7-dienol (A. fumigatus; 1 μg/ml): 0%
Sterol content in cells, Ergosterol (A. fumigatus; 1 μg/ml): 67.4%
Sterol content in cells, Lanosterol (A. fumigatus; 1 μg/ml): 8.8%
IC50 (AfCYP51A): 160 nM
Ki (AfCYP51A): < 1 nM
MIC [1]: 0.13 µg/mL (≈ 0.186 µM)
MIC [2]: > 8 µg/mL
MIC, Range [3, 10]: 0.016 to 2 µg/mL
MIC50 ([3]; Aspergillus fumigatus): 0.063 µg/mL (≈ 0.0899 µM)
MIC90 ([3]; Aspergillus fumigatus): 0.5 µg/mL (≈ 0.713 µM)
MIC ([3]; Aspergillus fumigatus, ATCC204305, read-out: MIC, quality control strain): 0.25 µg/mL (≈ 0.357 µM)
MIC [3, 11]: 0.1 µg/mL (≈ 0.143 µM)
MIC [3, 12]: 0.032 µg/mL (≈ 0.0457 µM)
MIC [4]: 0.2 µg/mL (≈ 0.285 µM)
MIC50 [5]: 0.5 µg/mL (≈ 0.713 µM)
IC50 (AfCYP51B): 170 nM
Ki (AfCYP51B): < 1 nM
MIC [6]: 0.5 µg/mL (≈ 0.713 µM)
MIC [7]: 0.016 µg/mL (≈ 0.0228 µM)
MIC [8]: 0.063 µg/mL (≈ 0.0899 µM)
MIC [9]: 0.16 µg/mL (≈ 0.228 µM)
